Source: patent US6228872A, “Neurotrophic diamide and carbamate agents” (Bristol-Myers Squibb Company, priority 1999, dated 2001)
Like-named read-outs stand apart in the source and are kept apart here. Each block holds one compound with its values, some of them ahead of it.

Key:
[1] = target: FKBP12 (Homo sapiens, UniProt P62942); assay: FKBP12 Rotamase Inhibition Assay; format: biochemical; settings: for inhibition at 10 µM: read-out: % inhib. at 10 μM; for Ki: apparent Ki, 4° C., substrate succinyl-Ala-Leu-Pro-Phe-p-nitroanilide
Procedure: FKBP12 Rotamase Inhibition Assay
The rotamase activity of FKBP-12 was measured by an adaptation of the assay described by Kofron et al. (Biochemistry, 30, pp. 6127-6134 (1991)). The assay was carried out at 4° C. with 1 mg chymotrypsin/mL of assay with succinyl-Ala-Leu-Pro-Phe-p-nitroanilide as the substrate. Chymotrypsin rapidly hydrolyzes the peptide bond on the C-terminal side of the Phe of the trans form of the peptide and releases the chromogenic p-nitroaniline. The rate of the reaction is controlled by the rate of conversion of the cis form of the peptide to the trans-form, the reaction catalyzed by FKBP12. The apparent Ki values for inhibition of the rotamase activity were determined by measuring decreases in the first order rate constant of the reaction catalyzed by FKBP12 as a function of the concentrations of the compounds described herein. Ki is the concentration of the compound that causes 50 percent inhibition of rotamase activity which is indicative of neurite outgrowth activity.

[2] = in vitro and in vivo; cited from earlier work
[3] = system: HIV-infected cells; settings: cited from earlier work
[4] = Table 2, 1 μM (values marked *), read-out: % inhib. at 1 μM*
[5] = Table 3, 1 μM, read-out: % rotamase inhib. at 1 μM
[6] = Table 4, 1 μM, read-out: % rotamase inhib. at 1 μM

FKBP12, sequence (P62942 whole entry, species assumed): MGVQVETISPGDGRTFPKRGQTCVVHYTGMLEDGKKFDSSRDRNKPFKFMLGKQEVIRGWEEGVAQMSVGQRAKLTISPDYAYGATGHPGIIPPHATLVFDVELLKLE

Compound: COc1cccc(CCN(CCCc2cccnc2)C(=O)OC[C@@H]2CCCN2C(=O)C(F)(F)c2cc(OC)c(OC)c(OC)c2)c1 [Example 32, N-(3,4,5-Trimethoxyphenyl)-difluoroacetyl-L-pyrrolidinylmethyl-[N',N'-3-(3-pyridyl)propyl-2-(3-methoxyphenyl)ethylamino]carbamate]
inhibition at 1 µM [1, 5]: 93%

Compound: COc1ccc(CCN(CCCc2cccnc2)C(=O)OC[C@@H]2CCCN2C(=O)C(F)(F)c2cc(OC)c(OC)c(OC)c2)cc1OC [Example 33]
inhibition at 1 µM [1, 5]: 96%

Compound: COc1cc(C(F)(F)C(=O)N2CCC[C@H]2COC(=O)N(CCCc2cccnc2)CCc2cccc(C(F)(F)F)c2)cc(OC)c1OC [Example 34, N-(3,4,5-Trimethoxyphenyl)-difluoroacetyl-L-pyrrolidinylmethyl-[N',N'-3-(3-pyridyl)propyl-2-(3-trifluoromethylphenyl)ethylamino]carbamate]
inhibition at 1 µM [1, 5]: 96%

Compound: COc1cc(C(F)(F)C(=O)N2CCC[C@H]2COC(=O)N(CCCc2ccc(C(=O)O)cc2)CCCc2cccnc2)cc(OC)c1OC [Example 35, N-(3,4,5-Trimethoxyphenyl)-difluoroacetyl-L-pyrrolidinylmethyl-[N',N'-3-(3-pyridyl)propyl-3-(4-carboxyphenyl)propylamino]carbamate]
inhibition at 1 µM [1, 5]: 94%

Compound: COc1cc(C(F)(F)C(=O)N2CCC[C@H]2COC(=O)N(CCCc2ccc(C(=O)OCc3ccccc3)cc2)CCCc2cccnc2)cc(OC)c1OC [Example 36, N-(3,4,5-Trimethoxyphenyl)-difluoroacetyl-L-pyrrolidinylmethyl-[N',N'-3-(3-pyridyl)propyl-3-(4-benzyloxycarbonylphenyl)propylamino]carbamate]
inhibition at 1 µM [1, 5]: 77%

Compound: COc1ccc(CCCN(CCCc2cccnc2)C(=O)OC[C@@H]2CCCN2C(=O)C(F)(F)c2cc(OC)c(OC)c(OC)c2)cc1 [Example 38, N-(3,4,5-Trimethoxyphenyl)-difluoroacetyl-L-pyrrolidinylmethyl-[N',N'-3-(3-pyridyl)propyl-3-(4-methoxyphenyl)propylamino]carbamate]
inhibition at 1 µM [1, 5]: 95%

Compound: COc1cc(CCCN(CCCc2cccnc2)C(=O)OC[C@@H]2CCCN2C(=O)C(F)(F)c2cc(OC)c(OC)c(OC)c2)cc(OC)c1OC [Example 39, N-(3,4,5-Trimethoxyphenyl)-difluoroacetyl-L-pyrrolidinylmethyl-[N',N'-3-(3-pyridyl)propyl-3-(3,4,5-trimethoxyphenyl)propylamino]carbamate]
inhibition at 1 µM [1, 5]: 92%

Compound: COc1ccc(CCCCN(CCCc2cccnc2)C(=O)OC[C@@H]2CCCN2C(=O)C(F)(F)c2cc(OC)c(OC)c(OC)c2)cc1OC [Example 40, N-(3,4,5-Trimethoxyphenyl)-difluoroacetyl-L-pyrrolidinylmethyl-[N',N'-3-(3-pyridyl)propyl-4-(3,4-dimethoxyphenyl)butylamino]carbamate]
inhibition at 1 µM [1, 5]: 98%

Compound: COc1cc(C(F)(F)C(=O)N2CCCC[C@H]2CCC(=O)N(CCCc2ccccc2)CCCc2cccnc2)cc(OC)c1OC [Example 44, N,N-(3-Phenylpropyl)-3-(3-pyridyl)propyl-2-[(S)-N'-(3,4,5-Trimethoxyphenyl)-difluoroacetyl-2-piperidinyl]propionamide]
inhibition at 1 µM [1, 6]: 0%

Compound: C=CC[C@@H]1/C=C(\C)C[C@H](C)C[C@H](OC)[C@H]2O[C@@](O)(C(=O)C(=O)N3CCCC[C@H]3C(=O)O[C@H](/C(C)=C/[C@@H]3CC[C@@H](O)[C@H](OC)C3)[C@H](C)[C@@H](O)CC1=O)[C@H](C)C[C@@H]2OC [FK506]
neurotrophic properties [2]: possess neurotrophic properties in vitro and in vivo
inhibition of growth of HIV-infected cells [3]: inhibits the growth of HIV-infected cells

Next, values leading:

inhibition at 10 µM ([1]; Table 2): 99%
Ki ([1]; Table 2): 577 nM
Compound: COc1cc(C(F)(F)C(=O)N2CCC[C@H]2COC(=O)N(CCCc2cccnc2)Cc2ccccc2)cc(OC)c1OC [Example 28, N-(3,4,5-Trimethoxyphenyl)-difluoroacetyl-L-pyrrolidinylmethyl-[N',N'-3-(3-pyridyl)propyl-benzylamino]carbamate]

inhibition at 1 µM [1, 4]: 80%
Compound: COc1cc(C(F)(F)C(=O)N2CCC[C@H]2COC(=O)N(CCCCc2cccnc2)CCCc2ccccc2)cc(OC)c1OC [Example 29, N-(3,4,5-Trimethoxyphenyl)-difluoroacetyl-L-pyrrolidinylmethyl-[N',N'-4-(3-pyridyl)butyl-3-phenylpropylamino]carbamate]

inhibition at 10 µM ([1]; Table 2): 97%
Compound: COc1cc(C(F)(F)C(=O)N2CCC[C@H]2COC(=O)N(CCCCc2cccnc2)CCc2ccccc2)cc(OC)c1OC [Example 30, N-(3,4,5-Trimethoxyphenyl)-difluoroacetyl-L-pyrrolidinylmethyl-[N',N'-4-(3-pyridyl)butyl-2-phenylethylamino]carbamate]

inhibition at 1 µM [1, 4]: 63%
Ki ([1]; Table 2): 686 nM
Compound: COc1cc(C(F)(F)C(=O)N2CCC[C@H]2COC(=O)N(CCCCc2cccnc2)Cc2ccccc2)cc(OC)c1OC [Example 31, N-(3,4,5-Trimethoxyphenyl)-difluoroacetyl-L-pyrrolidinylmethyl-[N',N'-4-(3-pyridyl)butyl-benzylamino]carbamate]

inhibition at 1 µM [1, 5]: 93%
Compound: COc1cccc(CCCN(CCCc2cccnc2)C(=O)OC[C@@H]2CCCN2C(=O)C(F)(F)c2cc(OC)c(OC)c(OC)c2)c1 [Example 37, N-(3,4,5-Trimethoxyphenyl)-difluoroacetyl-L-pyrrolidinylmethyl-[N',N'-3-(3-pyridyl)propyl-3-(3-methoxyphenyl)propylamino]carbamate]

inhibition at 1 µM [1, 6]: 42%
Compound: COc1cc(C(F)(F)C(=O)N2CCC[C@H]2CCC(=O)N(CCCc2ccccc2)CCCc2cccnc2)cc(OC)c1OC [Example 45, N,N-(3-Phenylpropyl)-3-(3-pyridyl)propyl-2-[(S)-N'-(3,4,5-Trimethoxyphenyl)-difluoroacetyl-2-pyrrolidinyl]propionamide]
